Patent US20230340011A1 (Asteroid Therapeutics, priority 2022, published 2023)
pIC50: −log10 of the molar value.

Target: SREBP-2 (Homo sapiens (Human), UniProt Q12772)
Experiment: In vitro assay SREBP-2: PathHunter U2OS SREBP-2 Nuclear Translocation Cell Line, U18666A-stimulated
Format: cell-based
Details: PathHunter U2OS SREBP-2 nuclear translocation cells, U18666A 10 μM, overnight (16 hours)

Compound	pIC50
C[C@H](CCC(=O)N1CCC(O)(C(F)F)CC1)[C@H]1CC[C@H]2[C@@H]3CC=C4C[C@@H](O)CC[C@]4(C)[C@H]3CC[C@]12C [Example 128, (R)-1-(4-(difluoromethyl)-4-hydroxypiperidin-1-yl)-4-((3S,8S,9S,10R,13R,14S,17R)-3-hydroxy-10,13-dimethyl-2,3,4,7,8,9,10,11,12,13,14,15,16,17-tetradecahydro-1H-cyclopenta[a]phenanthren-17-yl)pentan-1-one]	> 6.60
C[C@H](CCC(=O)N1CCC(O)(C2CCC2)CC1)[C@H]1CC[C@H]2[C@@H]3CC=C4C[C@@H](O)CC[C@]4(C)[C@H]3CC[C@]12C [Example 194, (R)-1-(4-cyclobutyl-4-hydroxypiperidin-1-yl)-4-((3S,8S,9S,10R,13R,14S,17R)-3-hydroxy-10,13-dimethyl-2,3,4,7,8,9,10,11,12,13,14,15,16,17-tetradecahydro-1H-cyclopenta[a]phenanthren-17-yl)pentan-1-one]	> 6.60
CNC(=O)c1ccncc1O[C@@H](C)[C@H]1CC[C@H]2[C@@H]3CC=C4C[C@@H](O)CC[C@]4(C)[C@H]3CC[C@]12C [Example 265, 3-((S)-1-((3S,8S,9S,10R,13S,14S,17S)-3-hydroxy-10,13-dimethyl-2,3,4,7,8,9,10,11,12,13,14,15,16,17-tetradecahydro-1H-cyclopenta[a]phenanthren-17-yl)ethoxy)-N-methylisonicotinamide]	5.00 to 6.00
C[C@H](CC[C@](O)(C1CC1)C(F)(F)F)[C@H]1CC[C@H]2[C@@H]3CC=C4C[C@@](C)(O)CC[C@]4(C)[C@H]3CC[C@]12C [Example 368, (3S,8S,9S,10R,13R,14S,17R)-17-((2R,5S)-5-cyclopropyl-6,6,6-trifluoro-5-hydroxyhexan-2-yl)-3,10,13-trimethyl-2,3,4,7,8,9,10,11,12,13,14,15,16,17-tetradecahydro-1H-cyclopenta[a]phenanthren-3-ol]	6.00 to 6.60
C#CC1(O)CCN(C(=O)CC[C@@H](C)[C@H]2CC[C@H]3[C@@H]4CC=C5C[C@@H](O)CC[C@]5(C)[C@H]4CC[C@]23C)CC1 [Example 147, (R)-1-(4-ethynyl-4-hydroxypiperidin-1-yl)-4-((3S,8S,9S,10R,13R,14S,17R)-3-hydroxy-10,13-dimethyl-2,3,4,7,8,9,10,11,12,13,14,15,16,17-tetradecahydro-1H-cyclopenta[a]phenanthren-17-yl)pentan-1-one]	> 6.60
CCC1(O)CCN(C(=O)CCC[C@H]2CC[C@H]3[C@@H]4CC=C5C[C@@H](O)CC[C@]5(C)[C@H]4CC[C@]23C)CC1 [Example 370, 1-(4-ethyl-4-hydroxypiperidin-1-yl)-4-((3S,8S,9S,10R,13R,14S,17S)-3-hydroxy-10,13-dimethyl-2,3,4,7,8,9,10,11,12,13,14,15,16,17-tetradecahydro-1H-cyclopenta[a]phenanthren-17-yl)butan-1-one]	6.00 to 6.60
CC(C)CC1(O)CCN(C(=O)CC[C@@H](C)[C@H]2CC[C@H]3[C@@H]4CC=C5C[C@@H](O)CC[C@]5(C)[C@H]4CC[C@]23C)CC1 [Example 93, (R)-4-((3S,8S,9S,10R,13R,14S,17R)-3-hydroxy-10,13-dimethyl-2,3,4,7,8,9,10,11,12,13,14,15,16,17-tetradecahydro-1H-cyclopenta[a]phenanthren-17-yl)-1-(4-hydroxy-4-isobutylpiperidin-1-yl) pentan-1-one]	> 6.60
Cc1noc(C(=O)N[C@H]2CCN(C(=O)CC[C@@H](C)[C@H]3CC[C@H]4[C@@H]5CC=C6C[C@@H](O)CC[C@]6(C)[C@H]5CC[C@]34C)C2)n1 [Example 527, N—((S)-1-((R)-4-((3S,8S,9S,10R,13R,14S,17R)-3-hydroxy-10,13-dimethyl-2,3,4,7,8,9,10,11,12,13,14,15,16,17-tetradecahydro-1H-cyclopenta[a]phenanthren-17-yl)pentanoyl)pyrrolidin-3-yl)-3-methyl-1,2,4-oxadiazole-5-carboxamide]	> 6.60
CC(=N)N1CCN(C(=O)CC[C@@H](C)[C@H]2CC[C@H]3[C@@H]4CC=C5C[C@@H](O)CC[C@]5(C)[C@H]4CC[C@]23C)CC1 [Example 459, (R)-4-((3S,8S,9S,10R,13R,14S,17R)-3-hydroxy-10,13-dimethyl-2,3,4,7,8,9,10,11,12,13,14,15,16,17-tetradecahydro-1H-cyclopenta[a]phenanthren-17-yl)-1-(4-(1-iminoethyl)piperazin-1-yl)pentan-1-one]	6.00 to 6.60
C[C@H](CCC(=O)N1CC[C@H](NS(C)(=O)=O)C1)[C@H]1CC[C@H]2[C@@H]3CC=C4C[C@@H](O)CC[C@]4(C)[C@H]3CC[C@]12C [Example 535, N—((S)-1-((R)-4-((3S,8S,9S,10R,13R,14S,17R)-3-hydroxy-10,13-dimethyl-2,3,4,7,8,9,10,11,12,13,14,15,16,17-tetradecahydro-1H-cyclopenta[a]phenanthren-17-yl)pentanoyl)pyrrolidin-3-yl)methanesulfonamide]	6.00 to 6.60
C[C@H](CCC(=O)N1CC[C@H](Nc2ccncc2)C1)[C@H]1CC[C@H]2[C@@H]3CC=C4C[C@@H](O)CC[C@]4(C)[C@H]3CC[C@]12C [Example 530, (4R)-4-[(1R,3aS,3bS,7S,9aR,9bS,11aR)-7-hydroxy-9a,11a-dimethyl-1H,2H,3H,3aH,3bH,4H,6H,7H,8H,9H,9aH,9bH,10H,11H,11aH-cyclopenta[a]phenanthren-1-yl]-1-[(3S)-3-[(pyridin-4-yl)amino]pyrrolidin-1-yl]pentan-1-one]	6.00 to 6.60
CCOc1cccnc1CC[C@@H](C)[C@H]1CC[C@H]2[C@@H]3CC=C4C[C@@H](O)CC[C@]4(C)[C@H]3CC[C@]12C [Example 457, (1R,3aS,3bS,7S,9aR,9bS,11aR)-1-[(2R)-4-(3-ethoxypyridin-2-yl)butan-2-yl]-9a,11a-dimethyl-1H,2H,3H,3aH,3bH,4H,6H,7H,8H,9H,9aH,9bH,10H,11H,11aH-cyclopenta[a]phenanthren-7-ol]	> 6.60
C[C@H](Oc1cncc(CO)c1)[C@H]1CC[C@H]2[C@@H]3CC=C4C[C@@H](O)CC[C@]4(C)[C@H]3CC[C@]12C [Example 269, (3S,8S,9S,10R,13S,14S,17S)-17-((S)-1-((5-(hydroxymethyl)pyridin-3-yl)oxy)ethyl)-10,13-dim ethyl-2,3,4,7,8,9,10,11,12,13,14,15,16,17-tetradecahydro-1H-cyclopenta[a]phenanthren-3-ol]	6.00 to 6.60
C[C@H](CCC(=O)N(C)Cc1ccccn1)[C@H]1CC[C@H]2[C@@H]3CC=C4C[C@@H](O)CC[C@]4(C)[C@H]3CC[C@]12C [Example 542, (4R)-4-[(1R,3aS,3bS,7S,9aR,9bS,11aR)-7-hydroxy-9a,11a-dimethyl-1H,2H,3H,3aH,3bH,4H,6H,7H,8H,9H,9aH,9bH,10H,11H,11aH-cyclopenta[a]phenanthren-1-yl]-N-methyl-N— [(pyridin-2-yl)methyl]pentanamide]	6.00 to 6.60
C[C@H](CCC(=O)N1CCNCC1)[C@H]1CC[C@H]2[C@@H]3CC=C4C[C@@H](O)CC[C@]4(C)[C@H]3CC[C@]12C [Example 2, (R)-4-((3S,8S,9S,10R,13R,14S,17R)-3-hydroxy-10,13-dimethyl-2,3,4,7,8,9,10,11,12,13,14,15,16,17-tetradecahydro-1H-cyclopenta[a]phenanthren-17-yl)-1-(piperazin-1-yl) pentan-1-one]	6.00 to 6.60
Cc1ncccc1O[C@@H](C)[C@H]1CC[C@H]2[C@@H]3CC=C4C[C@@H](O)CC[C@]4(C)[C@H]3CC[C@]12C [Example 430, (1S,3aS,3bS,7S,9aR,9bS,11aS)-9a,11a-dimethyl-1-[(1S)-1-[(2-methylpyridin-3-yl)oxy]ethyl]-1H,2H,3H,3aH,3bH,4H,6H,7H,8H,9H,9aH,9bH,10H,11H,11aH-cyclopenta[a]phenanthren-7-ol]	6.00 to 6.60
Cc1cncc(O[C@@H](C)[C@H]2CC[C@H]3[C@@H]4CC=C5C[C@@H](O)CC[C@]5(C)[C@H]4CC[C@]23C)c1 [Example 432, (3S,8S,9S,10R,13S,14S,17S)-10,13-dimethyl-17-((S)-1-((5-methylpyridin-3-yl)oxy)ethyl)-2,3,4,7,8,9,10,11,12,13,14,15,16,17-tetradecahydro-1H-cyclopenta[a]phenanthren-3-ol]	> 6.60
C[C@H](CCC(=O)N1CCC(C(NS(C)(=O)=O)C(F)(F)F)CC1)[C@H]1CC[C@H]2[C@@H]3CC=C4C[C@@H](O)CC[C@]4(C)[C@H]3CC[C@]12C (stereo partly drawn) [Example 476, N-(2,2,2-trifluoro-1-(1-((R)-4-((3S,8S,9S,10R,13R,14S,17R)-3-hydroxy-10,13-dimethyl-2,3,4,7,8,9,10,11,12,13,14,15,16,17-tetradecahydro-1H-cyclopenta[a]phenanthren-17-yl)pentanoyl)piperidin-4-yl)ethyl)methanesulfonamide]	> 6.60
CNC(=O)c1ncccc1O[C@@H](C)[C@H]1CC[C@H]2[C@@H]3CC=C4C[C@@H](O)CC[C@]4(C)[C@H]3CC[C@]12C [Example 267, 3-((S)-1-((3S,8S,9S,10R,13S,14S,17S)-3-hydroxy-10,13-dimethyl-2,3,4,7,8,9,10,11,12,13,14,15,16,17-tetradecahydro-1H-cyclopenta[a]phenanthren-17-yl)ethoxy)-N-methylpicolinamide]	6.00 to 6.60
C=CCN1C[C@H]2CON(C(=O)CC[C@@H](C)[C@H]3CC[C@H]4[C@@H]5CC=C6C[C@@H](O)CC[C@]6(C)[C@H]5CC[C@]34C)[C@H]2C1 [Example 45, (R)-1-((3aR,6aR)-5-allylhexahydro-1H-pyrrolo[3,4-c]isoxazol-1-yl)-4-((3S,8S,9S,10R,13R,14S,17R)-3-hydroxy-10,13-dimethyl-2,3,4,7,8,9,10,11,12,13,14,15,16,17-tetradecahydro-1H-cyclopenta[a]phenanthren-17-yl)pentan-1-one]	6.00 to 6.60
